# Results taken from ChEMBL document CHEMBL1201862, “PubChem BioAssay data set” (2004).
#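 Where inhibition never reached the appropriate level, the endpoint shown equals the highest concentration tested. Otherwise, values were interpolated linearly from a five-concentration, 48-hour dose response in 96-well plates. Here, GI50 denotes the concentration required for 50% inhibition of growth.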 Active and inactive are the calls of the source. Cut-off read from the data, not from the text of the source: active = GI50 up to about 1.1 µM and inactive = higher.
# Key:
# Experiment in all cases: DTP human tumour cell line panel, 48 h
# SR = tested on: SR
# SNB-75 = tested on: SNB-75
# COLO 205 = tested on: COLO 205
# CCRF-CEM = tested on: CCRF-CEM
# MOLT-4 = tested on: MOLT-4
# OVCAR-8 = tested on: OVCAR-8
# NCI-H23 = tested on: NCI-H23
# EKVX = tested on: EKVX
# SK-MEL-2 = tested on: SK-MEL-2
# NCI/ADR-RES = tested on: NCI/ADR-RES
# OVCAR-4 = tested on: OVCAR-4
# M14 = tested on: M14
# K562 = tested on: K562
# SK-MEL-28 = tested on: SK-MEL-28
# LOX IMVI = tested on: LOX IMVI
# DU-145 = tested on: DU-145
# HCT-15 = tested on: HCT-15
# OVCAR-3 = tested on: OVCAR-3
# Malme-3M = tested on: Malme-3M
Compound,GI50 (SR),GI50 (SNB-75),GI50 (COLO 205),GI50 (CCRF-CEM),GI50 (MOLT-4),GI50 (OVCAR-8),GI50 (NCI-H23),GI50 (EKVX),GI50 (SK-MEL-2),GI50 (NCI/ADR-RES),GI50 (OVCAR-4),GI50 (M14),GI50 (K562),GI50 (SK-MEL-28),GI50 (LOX IMVI),GI50 (DU-145),GI50 (HCT-15) [µM],GI50 (OVCAR-3),GI50 (Malme-3M)
CC(C)[Si]1(C(C)C)OCC2OC3(CO)C(Oc4nc(=O)ccn43)C2O[Si](C(C)C)(C(C)C)O1 (stereo not given),15.5 µM (inactive),15 µM (inactive),9.44 µM (inactive),5.14 µM (inactive),7.55 µM (inactive),14.1 µM (inactive),15.5 µM (inactive),17.1 µM (inactive),16.3 µM (inactive),17.4 µM (inactive),13.1 µM (inactive),14.8 µM (inactive),21 µM (inactive),15 µM (inactive),15 µM (inactive),14 µM (inactive),15,,
Nc1ncc2c(n1)-c1ccccc1OC2N1CCCCC1 (stereo not given),> 100 µM (inactive),> 100 µM (inactive),> 100 µM (inactive),> 100 µM (inactive),> 100 µM (inactive),> 100 µM (inactive),> 100 µM (inactive),95.1 µM (inactive),> 100 µM (inactive),> 100 µM (inactive),> 100 µM (inactive),> 100 µM (inactive),,,> 100 µM (inactive),> 100 µM (inactive),> 100,> 100 µM (inactive),
O=C1CC(c2ccccc2)Oc2ccccc21 (stereo not given) [FLAVANONE],24 µM (inactive),63.4 µM (inactive),33.6 µM (inactive),24.2 µM (inactive),13.7 µM (inactive),48.9 µM (inactive),15.9 µM (inactive),38.9 µM (inactive),30.1 µM (inactive),34.9 µM (inactive),66.1 µM (inactive),51.9 µM (inactive),12.6 µM (inactive),> 100 µM (inactive),26.5 µM (inactive),67.6 µM (inactive),26.1,,
OC1(c2ccccc2)C2CC=CC2C1(c1ccccc1)c1ccccc1 (stereo not given),19.2 µM (inactive),34.1 µM (inactive),18.4 µM (inactive),27.8 µM (inactive),16.1 µM (inactive),40.2 µM (inactive),41.9 µM (inactive),20.5 µM (inactive),12 µM (inactive),44.3 µM (inactive),,32.7 µM (inactive),35.6 µM (inactive),40.1 µM (inactive),18 µM (inactive),61.7 µM (inactive),28.6,30.8 µM (inactive),19.5 µM (inactive)
COC(=O)C1=NN2c3ccccc3C(=O)OCCC2C1 (stereo not given),> 100 µM (inactive),> 100 µM (inactive),> 100 µM (inactive),> 100 µM (inactive),> 100 µM (inactive),> 100 µM (inactive),> 100 µM (inactive),> 100 µM (inactive),> 100 µM (inactive),> 100 µM (inactive),> 100 µM (inactive),,> 100 µM (inactive),> 100 µM (inactive),> 100 µM (inactive),> 100 µM (inactive),> 100,> 100 µM (inactive),> 100 µM (inactive)
Cc1ccc(C)c(/C(=N\N=C(N)N)C2CC2)c1,37.6 µM (inactive),37.5 µM (inactive),35.1 µM (inactive),,35.2 µM (inactive),46.6 µM (inactive),20.7 µM (inactive),43.9 µM (inactive),50.8 µM (inactive),58.1 µM (inactive),> 100 µM (inactive),39.6 µM (inactive),20.5 µM (inactive),35 µM (inactive),32.4 µM (inactive),58.9 µM (inactive),48.6,94.6 µM (inactive),41.5 µM (inactive)
CC(=O)Nc1cc(Cl)cc(Cl)c1O,> 100 µM (inactive),97.1 µM (inactive),> 100 µM (inactive),> 100 µM (inactive),> 100 µM (inactive),> 100 µM (inactive),> 100 µM (inactive),> 100 µM (inactive),> 100 µM (inactive),> 100 µM (inactive),> 100 µM (inactive),> 100 µM (inactive),> 100 µM (inactive),> 100 µM (inactive),,> 100 µM (inactive),> 100,> 100 µM (inactive),> 100 µM (inactive)
COC(=O)C1=C(C)N2[C@H](C(=O)O)CS[C@@]2(C)[C@H](C(=O)OC)[C@H]1c1cccc([N+](=O)[O-])c1,> 100 µM (inactive),> 100 µM (inactive),> 100 µM (inactive),> 100 µM (inactive),> 100 µM (inactive),> 100 µM (inactive),> 100 µM (inactive),> 100 µM (inactive),> 100 µM (inactive),> 100 µM (inactive),> 100 µM (inactive),> 100 µM (inactive),> 100 µM (inactive),> 100 µM (inactive),,> 100 µM (inactive),> 100,> 100 µM (inactive),> 100 µM (inactive)
Cc1ccc(S(=O)(=O)N2C[C@@H]3CC[C@]4(CO[Si](C)(C)C(C)(C)C)N[C@@H](c5ccccc5)[C@H]2[C@H]34)cc1,16.2 µM (inactive),,17.6 µM (inactive),43.2 µM (inactive),19 µM (inactive),39.7 µM (inactive),11.4 µM (inactive),34.2 µM (inactive),48.2 µM (inactive),25.9 µM (inactive),26.5 µM (inactive),61.7 µM (inactive),9.02 µM (inactive),> 100 µM (inactive),28 µM (inactive),45 µM (inactive),24.7,32 µM (inactive),18.6 µM (inactive)
NC1Cc2ccccc2OC1=O (stereo not given),> 100 µM (inactive),> 100 µM (inactive),> 100 µM (inactive),,> 100 µM (inactive),> 100 µM (inactive),> 100 µM (inactive),> 100 µM (inactive),> 100 µM (inactive),> 100 µM (inactive),,> 100 µM (inactive),> 100 µM (inactive),> 100 µM (inactive),,> 100 µM (inactive),> 100,> 100 µM (inactive),> 100 µM (inactive)
c1ccc(CN2CCC3(CC2)SSC2(CCN(Cc4ccccc4)CC2)S3)cc1,28.8 µM (inactive),> 100 µM (inactive),17 µM (inactive),65.9 µM (inactive),> 100 µM (inactive),> 100 µM (inactive),30.1 µM (inactive),,76.7 µM (inactive),> 100 µM (inactive),52.4 µM (inactive),66.5 µM (inactive),71.6 µM (inactive),44 µM (inactive),48.8 µM (inactive),> 100 µM (inactive),38.8,76.4 µM (inactive),53.7 µM (inactive)
CN1c2ccccc2C2=C(c3ccccc3)CC[C@@H](C(=O)N3C4CC5CC[C@@]4(CS3(=O)=O)C5(C)C)[C@@H]21 (stereo not given in full),> 100 µM (inactive),> 100 µM (inactive),> 100 µM (inactive),> 100 µM (inactive),4.58 µM (inactive),> 100 µM (inactive),> 100 µM (inactive),> 100 µM (inactive),,> 100 µM (inactive),> 100 µM (inactive),> 100 µM (inactive),10.5 µM (inactive),> 100 µM (inactive),> 100 µM (inactive),> 100 µM (inactive),> 100,> 100 µM (inactive),> 100 µM (inactive)
CN(C)CCNc1ccc([N+](=O)[O-])c2sc3ccccc3c(=O)c12,1.56 µM (inactive),4.68 µM (inactive),2.86 µM (inactive),2.26 µM (inactive),0.706 µM (active),3.63 µM (inactive),4.16 µM (inactive),4.5 µM (inactive),14.1 µM (inactive),3.44 µM (inactive),3.1 µM (inactive),6.71 µM (inactive),4.43 µM (inactive),7.08 µM (inactive),,5.07 µM (inactive),3.67,3.68 µM (inactive),4.27 µM (inactive)
OC(c1ccc(F)cc1)C(F)(F)c1nc2ccccc2o1 (stereo not given),> 100 µM (inactive),21.6 µM (inactive),> 100 µM (inactive),> 100 µM (inactive),46.6 µM (inactive),51.2 µM (inactive),> 100 µM (inactive),> 100 µM (inactive),> 100 µM (inactive),51.4 µM (inactive),> 100 µM (inactive),> 100 µM (inactive),30.8 µM (inactive),> 100 µM (inactive),> 100 µM (inactive),47 µM (inactive),> 100,,
CCOC(=O)c1c2ccccc2n2c(=O)n(-c3ccc(OC)cc3)nnc12,38.7 µM (inactive),14.5 µM (inactive),> 100 µM (inactive),,,20.6 µM (inactive),34.4 µM (inactive),32.1 µM (inactive),22.8 µM (inactive),31 µM (inactive),22.5 µM (inactive),51.1 µM (inactive),25.9 µM (inactive),65.6 µM (inactive),17.3 µM (inactive),75.2 µM (inactive),> 58.6,34.4 µM (inactive),30.5 µM (inactive)
COC1=C(OC)C(=O)C(Cc2c(Cl)nc3sccn23)=C(C)C1=O,5.04 µM (inactive),,15.7 µM (inactive),2.02 µM (inactive),1.85 µM (inactive),13.5 µM (inactive),5.36 µM (inactive),7.11 µM (inactive),14.1 µM (inactive),5.89 µM (inactive),2.96 µM (inactive),11.7 µM (inactive),11 µM (inactive),12 µM (inactive),2.96 µM (inactive),13.5 µM (inactive),12.6,12.7 µM (inactive),1.85 µM (inactive)
